Tested on: SEM cells
Assay: cell viability relative to DMSO control; higher = less cytotoxic
Settings: 48 h
Method in brief: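 Three leukemia lines were tested: NOMO1 and SEM at 500 cells/well and P12-Ichikawa at 1000 cells/well. Each was adapted for at least four passages in each medium and seeded in 5 μl in 1536-well plates, and library compounds in DMSO were pin-dosed from 47 μM to 0.79 nM in 11 threefold steps. After 48 h at 37°C, CellTiter-Glo One luminescence was read. Viability is a percentage relative to DMSO wells on each plate, with cell-free wells as background.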

[1] = HPLM + 10% dialyzed FBS, 0.000781 µM
[2] = HPLM + 10% dialyzed FBS, 0.00234 µM
[3] = HPLM + 10% dialyzed FBS, 0.00702 µM
[4] = HPLM + 10% dialyzed FBS, 0.0211 µM
[5] = HPLM + 10% dialyzed FBS, 0.0632 µM
[6] = HPLM + 10% dialyzed FBS, 0.19 µM
[7] = HPLM + 10% dialyzed FBS, 0.569 µM
[8] = HPLM + 10% dialyzed FBS, 1.71 µM
[9] = HPLM + 10% dialyzed FBS, 5.12 µM
[10] = HPLM + 10% dialyzed FBS, 15.4 µM
[11] = HPLM + 10% dialyzed FBS, 46.1 µM
[12] = RPMI 5 mM glucose + 10% FBS, 0.000781 µM
[13] = RPMI 5 mM glucose + 10% FBS, 0.00234 µM
[14] = RPMI 5 mM glucose + 10% FBS, 0.00702 µM
[15] = RPMI 5 mM glucose + 10% FBS, 0.0211 µM
[16] = RPMI 5 mM glucose + 10% FBS, 0.0632 µM
[17] = RPMI 5 mM glucose + 10% FBS, 0.19 µM
[18] = RPMI 5 mM glucose + 10% FBS, 0.569 µM
[19] = RPMI 5 mM glucose + 10% FBS, 1.71 µM
[20] = RPMI 5 mM glucose + 10% FBS, 5.12 µM
[21] = RPMI 5 mM glucose + 10% FBS, 15.4 µM
[22] = RPMI 5 mM glucose + 10% FBS, 46.1 µM
[23] = RPMI 5 mM glucose + 10% dialyzed FBS, 0.000781 µM
[24] = RPMI 5 mM glucose + 10% dialyzed FBS, 0.00234 µM
[25] = RPMI 5 mM glucose + 10% dialyzed FBS, 0.00702 µM
[26] = RPMI 5 mM glucose + 10% dialyzed FBS, 0.0211 µM
[27] = RPMI 5 mM glucose + 10% dialyzed FBS, 0.0632 µM
[28] = RPMI 5 mM glucose + 10% dialyzed FBS, 0.19 µM
[29] = RPMI 5 mM glucose + 10% dialyzed FBS, 0.569 µM
[30] = RPMI 5 mM glucose + 10% dialyzed FBS, 1.71 µM
[31] = RPMI 5 mM glucose + 10% dialyzed FBS, 5.12 µM
[32] = RPMI 5 mM glucose + 10% dialyzed FBS, 15.4 µM
[33] = RPMI 5 mM glucose + 10% dialyzed FBS, 46.1 µM

SMILES | cell viability [1] [%] | cell viability [2] [%] | cell viability [3] [%] | cell viability [4] [%] | cell viability [5] [%] | cell viability [6] [%] | cell viability [7] [%] | cell viability [8] [%] | cell viability [9] [%] | cell viability [10] [%] | cell viability [11] [%] | cell viability [12] [%] | cell viability [13] [%] | cell viability [14] [%] | cell viability [15] [%] | cell viability [16] [%] | cell viability [17] [%] | cell viability [18] [%] | cell viability [19] [%] | cell viability [20] [%] | cell viability [21] [%] | cell viability [22] [%] | cell viability [23] [%] | cell viability [24] [%] | cell viability [25] [%] | cell viability [26] [%] | cell viability [27] [%] | cell viability [28] [%] | cell viability [29] [%] | cell viability [30] [%] | cell viability [31] [%] | cell viability [32] [%] | cell viability [33] [%]
COC\1=C(/OC)C(=O)\C(=C(C)/C1=O)CCCCCCCCCCO | 97.8 | 92 | 92.4 | 120 | 119 | 132 | 133 | 99 | 119 | 112 | 90.8 | 109 | 109 | 127 | 105 | 132 | 136 | 124 | 112 | 136 | 123 | 90.6 | 122 | 129 | 123 | 115 | 129 | 125 | 137 | 113 | 141 | 98.6 | 68.3
CNc1nc(Nc2ccc(C(=O)N3CCOCC3)cc2OC)ncc1Cl | – | – | – | – | – | – | – | – | – | – | – | 107 | 120 | 101 | 104 | 113 | 107 | 70.9 | 128 | 97.9 | 92.4 | 42.2 | 123 | 106 | 118 | 111 | 120 | 114 | 78.5 | 114 | 131 | 105 | 68.8
CC[C@H](NC1=C2N=C[NH]C2=NC=N1)C/3=N/C4=C(C(=CC=C4)F)C(=O)N3C5=CC=CC=C5 | 94.9 | 118 | 133 | 120 | 114 | 97.2 | 87.4 | 106 | 81.7 | 73.6 | 52.1 | 79.2 | 94.8 | 112 | 105 | 111 | 108 | 88.2 | 88.9 | 84.5 | 57.6 | 53.1 | 90.2 | 110 | 132 | 120 | 116 | 84.2 | 116 | 110 | 92.8 | 80.1 | 57.3
O=C(c1ccc(F)cc1)N1CCC[C@H](c2nc(-c3ccc(F)cc3)no2)C1 | 119 | 120 | 122 | 112 | 128 | 114 | 111 | 104 | 102 | 105 | 115 | 119 | 111 | 124 | 121 | 128 | 117 | 111 | 112 | 99.4 | 106 | 116 | 104 | 103 | 130 | 125 | 105 | 116 | 118 | 113 | 102 | 101 | 128
N#CCNC(=O)c1ccc(-c2ccnc(Nc3ccc(N4CCOCC4)cc3)n2)cc1 | – | – | – | – | – | – | – | – | – | – | – | 98.5 | 107 | 122 | 108 | 126 | 116 | 103 | 107 | 87 | 37.9 | 13.1 | 91.3 | 107 | 105 | 115 | 120 | 101 | 91.5 | 88.5 | 65.1 | 37.2 | 21.6
Cc1cnn(C)c1C(=O)Nc1cc(Nc2ccc3c(/C=C/c4ccccn4)n[nH]c3c2)ccc1F | 114 | 123 | 112 | 103 | 110 | 89.6 | 72.4 | 70.7 | 63.4 | 49.7 | 23.8 | 120 | 118 | 121 | 107 | 104 | 87.8 | 67 | 62.1 | 45.4 | 28.4 | 4.94 | 114 | 119 | 144 | 124 | 103 | 89.1 | 75.9 | 68.3 | 60.6 | 43 | 14.2
CC(C)(C#N)c1cc(Cn2cncn2)cc(C(C)(C)C#N)c1 | 101 | 92.6 | 87.4 | 103 | 111 | 104 | 21.8 | 112 | 116 | 117 | 113 | 123 | 116 | 115 | 102 | 109 | 106 | 21.3 | 122 | 126 | 125 | 111 | – | – | – | – | – | – | – | – | – | – | –
C[C@]12CC[C@H]3[C@@H](CC[C@H]4NC(=O)\C=C/[C@]34C)[C@@H]1CC[C@@H]2C(=O)NC5=CC(=CC=C5C(F)(F)F)C(F)(F)F | 116 | 122 | 118 | 117 | 118 | 61.3 | 119 | 113 | 81.1 | 111 | 99.3 | 123 | 120 | 138 | 132 | 120 | 115 | 124 | 129 | 56 | 128 | 126 | 114 | 141 | 120 | 126 | 121 | 100 | 126 | 121 | 37.1 | 117 | 105
COc1ccc([S+](=O)([O-])N(C(C)=O)c2ccccc2/C=C/c2cc[n+]([O-])cc2)cc1 | 124 | 122 | 133 | 141 | 125 | 125 | 124 | 55.4 | 26.1 | 26.5 | 23 | 122 | 131 | 115 | 126 | 97.1 | 103 | 111 | 39.1 | 20.3 | 18.4 | 13.4 | – | – | – | – | – | – | – | – | – | – | –
C[C@](Cc1c[nH]c2ccccc12)(NC(=O)OC1C2CC3CC(C2)CC1C3)C(=O)NC[C@H](NC(=O)CCC(=O)O)c1ccccc1 (stereo partly drawn) | 88.1 | 87.3 | 112 | 106 | 124 | 129 | 121 | 123 | 116 | 126 | 120 | 96.8 | 82.8 | 110 | 121 | 105 | 149 | 148 | 135 | 128 | 125 | 132 | 113 | 91 | 121 | 126 | 118 | 137 | 134 | 142 | 136 | 168 | 123
Cc1nn(Cc2ccccc2Cl)c(C)c1CN(C)CC(O)COc1ccc(Cl)cc1 (stereo not drawn) | 95.7 | 98.1 | 103 | 119 | 100 | 102 | 109 | 104 | 105 | 41.8 | 46.9 | 100 | 109 | 93 | 112 | 110 | 116 | 107 | 114 | 105 | 41.1 | 41.4 | 109 | 91.8 | 107 | 103 | 113 | 89.9 | 97.2 | 101 | 95.8 | 39.2 | 38.3
CC(C)CNc1ccnc(NCc2csc(-c3ccccc3)n2)n1 | 88.4 | 107 | 104 | 100 | 121 | 113 | 107 | 120 | 108 | 64.2 | 61.1 | 110 | 110 | 127 | 113 | 138 | 145 | 142 | 138 | 113 | 88.9 | 68.2 | – | – | – | – | – | – | – | – | – | – | –
C[C@@]12C(=O)OC(=O)[C@@]1(C)C1CCC2O1 | 118 | 103 | 112 | 112 | 114 | 107 | 112 | 95.1 | 87.1 | 6.65 | 4.55 | 105 | 113 | 112 | 112 | 112 | 110 | 124 | 104 | 73.1 | 5.81 | 4.32 | 120 | 116 | 110 | 124 | 120 | 113 | 114 | 96.8 | 58.2 | 6.57 | 4.36
CCC[S+]([O-])c1ccc2[nH]c(NC(=O)OC)nc2c1 (stereo not drawn) | 78.9 | 96.2 | 111 | 86.7 | 100 | 105 | 83.1 | 94.9 | 94.6 | 38.2 | 33.4 | 74.9 | 99.4 | 100 | 99.3 | 114 | 93.9 | 82 | 84.9 | 91.8 | 24.4 | 32.2 | 72.7 | 99.8 | 95.9 | 109 | 101 | 113 | 83.1 | 105 | 98.6 | 23.2 | 17.3
COc1ccc([C@@H]2CC(=O)c3c(O)cc(O[C@@H]4O[C@H](CO[C@@H]5O[C@@H](C)[C@H](O)[C@@H](O)[C@H]5O)[C@@H](O)[C@H](O)[C@H]4O)cc3O2)cc1O | 98.6 | 101 | 119 | 114 | 109 | 120 | 103 | 102 | 112 | 107 | 74 | 117 | 106 | 107 | 102 | 111 | 106 | 115 | 116 | 103 | 111 | 52.7 | 110 | 138 | 108 | 115 | 126 | 114 | 131 | 120 | 119 | 127 | 44
O=C(Nc1cc(Cl)cc2c1[nH]c1cnccc12)c1cccnc1 | 121 | 121 | 116 | 134 | 124 | 122 | 118 | 141 | 133 | 127 | 113 | 109 | 108 | 96.3 | 117 | 126 | 125 | 128 | 129 | 138 | 121 | 124 | 113 | 107 | 109 | 108 | 100 | 98.5 | 116 | 125 | 123 | 128 | 117
